{"source": "patent US5320948A", "about": "“Cephalosporin C acylase” (Fujisawa Pharmaceutical Co., Ltd., priority 1990, dated 1994)", "key": {"CC acylase N-176 [1]": {"system": "CC acylase N-176", "assay": "Substrate profile of CC acylase N-176, HPLC assay", "type": "biochemical, Pseudomonas diminuta N-176", "details": "percentage compared to the activity for GL-7ACA; 2 mg substrate, 20 μg enzyme, pH 9, 50° C., 2 min", "method": "(§1) Transformant colonies were picked up and grown overnight at 30° C. in 1 ml of 2% Bouillon (Eiken Chemical Co., Ltd., Japan) supplemented with 1 mM […] (IPTG: Sigma Chemical Co., Ltd., U.S.A.). Cells were harvested by centrifugation and resulting cell pellets were used for assay. Reaction mixture (200 μl) containing 100 mM phosphate (pH 8), 2 mg of GL-7ACA or cephalosporin C Na and cell pellets were thoroughly mixed and incubated for 10 min at 37° C. The reaction was terminated by the addition of 200 μl of 4% acetic acid. Samples were applied to a Inertsil ODS-2 column (4.6 mm×150 mm)(Gasukuro Kogyo Co., Ltd., Japan) and elution was performed with 0.567 g/l of Na2 PO4, 0.36 g/l of KH2 PO4 and 2-4% methanol. 7ACA was detected with absorption at 254 nm.\nEnzyme activity was determined by HPLC assay. Reaction mixture (200 μl) containing 100 mM glycine buffer (pH 9), 2 mg of a substrate and 20 μg of the enzyme was incubated at 50° C. for 2 min and the reaction was terminated by addition of 4% acetic acid. The relative enzyme activity was expressed as a percentage compared to the activity for GL-7ACA. To be noted, acylase activity for cephalosporin C was examined also by detecting the production of α-aminoadipic acid with the amino acid analyzer (Hitachi Co., Ltd., Japan)."}, "CC acylase N-176 [2]": {"system": "CC acylase N-176", "type": "biochemical, Pseudomonas diminuta N-176", "details": "pH 9", "method": "Effect of p-chloromercuribenzoate (pCMB, Sigma Chemical Co., Ltd.), phenylmethylsulfonyl fluoride (PMSF, Sigma) and ethylenediaminetetraacetic acid (EDTA, Nacalai Tesque Inc., Japan) on the activity of CC acylase N-176 was examined as follows. Four μg of CC acylase N-176 was treated at 37° C. for 4 hours with 0.1 or 1.0 mM pCMB, 0.1, 1.0, 2.0 or 5.0 mM PMSF, or 1.0 or 5.0 mM EDTA in 200 μl of 0.1M glycine buffer (pH 9). Residual activity of the treated enzyme was assayed by adding 22 μl of GL-7ACA (100 mg/ml) as a substrate to the mixture The reaction was performed at 37° C. for 2 min. Residual activity was expressed as a percentage compared to the activity of the enzyme treated with blank solution."}, "CC acylase N-176 [3]": {"system": "CC acylase N-176", "assay": "Specific enzyme activity, HPLC assay (Vmax and Km by Lineweaver-Burk plot)", "type": "biochemical, Pseudomonas diminuta N-176", "details": "substrate of CC acylase N-176, 100 mM glycine buffer pH 9, 37° C., 2 min; for Km: read-out: Michaelis constant (Km)", "method": "as §1\nThe activity of the cephalosporin C acylase was determined by HPLC assay. Reaction mixtures (200 μl) containing 100 mM glycine buffer (pH 9), 1.25-40 mM Cephalosporin C Li and 19 μg of the enzyme is used for assay of cephalosporin C acylase, meanwhile for assay of GL-7ACA acylase activity, reaction mixture (200 μl) containing 100 mM glycine buffer (pH 9), 0.48-10.4 mM GL-7ACA and 0.5 μg of the enzyme is used. Reaction mixtures were incubated for 2 min at 37° C. and the reaction was terminated by addition of 200 μl of 4% acetic acid. Conditions for HPLC were the same as those described in Example 1.3. All assays used later in this section was HPLC method. Specific enzyme activity was expressed as unit per mg of protein. Protein concentrations were determined by Bio-Rad protein assay kit (Bio-Rad Co., Ltd., U.S.A.) with bovine serum albumin as a standard. Maximum specific enzyme activity (Vmax) and Michaelis constant (Km) were calculated from slope and intersection which were obtained by Lineweaver-Burk plot (Cf. M. Dixon and E. C. Webb, Enzymes, Longmans, London, 1958). Maximum specific enzyme activity of CC acylase N-176 was 100 and 3.1 units/mg for GL-7ACA and cephalosporin C, respectively."}, "CC acylase N-176 [4]": {"system": "CC acylase N-176", "assay": "Determination of inhibition constants (Ki) for reaction products, GL-7ACA acylase activity", "type": "biochemical, Pseudomonas diminuta N-176", "details": "for mode of inhibition: Lineweaver-Burk plots in absence and presence of inhibitor; for Ki: substrate GL-7ACA, 0.1M glycine buffer pH 9, 37° C., 3 min", "method": "Enzyme activity was assayed in the presence of 7-ACA or glutaric acid. For determination of Ki of 7-ACA, reaction mixtures (200 μl) containing 0.1M glycine buffer (pH 9), 0.26-2.08 μmole of GL-7ACA, 0.182-1.0 μmole of 7-ACA and 1 μg of enzyme was incubated at 37° C. for 3 min. For determination of Ki of glutaric acid, reaction mixture (200 μl) containing 0.1M glycine buffer (pH 9), 0.096-2.08 μmole of GL-7ACA, 0.25-0.5 μmole of glutaric acid and 0.5 μg of the enzyme was incubated at 37° C. for 3 min. […] Ki values were calculated from the apparent Michaelis constants (Kmapp), Km and Vmax."}, "[5]": {"assay": "Determination of isoelectric point (pI) by analytical isoelectric focusing", "type": "physicochemical", "details": "4% polyacrylamide gel, Ampholine pH range 3.5-10", "method": "Analytical isoelectric focusing of CC acylase N-176 was performed according to the method of Olson et al(Cf.FEMS Microbiol. Lett. 1, 157-162(1977)). Purified acylase preparation was applied on thin layer of 4% polyacrylamide gel containing 2% Ampholine pH range 3.5-10 (Pharmacia LKB Biotechnology, Sweden). The proteins were electrofocused for 2 hours at 100 volts using isoelectric focusing apparatus SJ-1071EC (ATTO Co., Ltd., Japan). After electrofocusing, the gel was stained with Coomassie Brilliant Blue R-250 and the isoelectric point was determined from the calibration curve made with pI markers (Pharmacia LKB Technology) which were run simultaneously with the sample. The pI value of CC acylase N-176 was estimated to be 4.5."}, "Optimum pH of the enzyme": {"assay": "Optimum pH of the enzyme", "type": "biochemical", "details": "0.1M buffers pH 6-10, 37° C., 2 min", "method": "Reaction mixture (200 μl) containing 0.1M buffer (phosphate buffer between pH 6-8, Tris HCl buffer between pH 7-9 and glycine buffer between pH 8-10), 2 mg of GL-7ACA or 3.3 mg of cephalosporin C Li and 3 μg of the enzyme was used. The reaction was performed at 37° C. for 2 min. Optimum pH for the enzyme was 9."}, "[6]": {"assay": "Optimum temperature of the enzyme", "type": "biochemical", "details": "0.1M glycine buffer pH 9, 2 mg GL-7ACA, 2 min, 25° to 60° C.", "method": "Reaction mixture (200 μl) containing 0.1M glycine buffer (pH 9), 2 mg of GL-7ACA and 2 μg of the enzyme were incubated for 2 min at various temperature from 25° to 60° C. The optimum temperature was 50° C."}, "[7]": {"details": "inhibitor 0.1 mM, treated at 37° C. for 4 hours, substrate GL-7ACA"}, "[8]": {"details": "inhibitor 1.0 mM, treated at 37° C. for 4 hours, substrate GL-7ACA"}}, "note": "Several values for one entry are separate records, joined by “and”; a condition that tells them apart may be missing. Identical values can stand only once. Like-named read-outs stand apart in the source and are kept apart here."}
{"molecule": "CC(=O)OCC1=C(C(=O)O)N2C(=O)[C@@H](NC(=O)CCC[C@@H](NC(=O)c3ccccc3)C(=O)O)[C@H]2SC1", "note": "[N-Benzyoylcephalosporin C, N-benzoylcephalosporin C]", "values": [{"measurement": "Relative enzyme activity", "setting": "CC acylase N-176 [1]", "value": 0.0003, "unit": "%"}]}
{"molecule": "O=S(=O)(F)Cc1ccccc1", "note": "[PMSF, phenylmethylsulfonyl fluoride]", "values": [{"measurement": "Residual enzyme activity (%)", "setting": "CC acylase N-176 [2]; [7]", "value": 96, "unit": "%"}, {"measurement": "Residual enzyme activity (%)", "setting": "CC acylase N-176 [2]; [8]", "value": 91, "unit": "%"}, {"measurement": "Residual enzyme activity (%)", "setting": "CC acylase N-176 [2]; inhibitor 2.0 mM, treated at 37° C. for 4 hours, substrate GL-7ACA", "value": 79, "unit": "%"}, {"measurement": "Residual enzyme activity (%)", "setting": "CC acylase N-176 [2]; inhibitor 5.0 mM, treated at 37° C. for 4 hours, substrate GL-7ACA", "value": 62, "unit": "%"}]}
{"molecule": "O=C(O)c1cc[c]([Hg][Cl])cc1", "note": "[pCMB, p-chloromercuribenzoate]", "values": [{"measurement": "Residual enzyme activity (%)", "setting": "CC acylase N-176 [2]; [7]", "value": 7.8, "unit": "%"}, {"measurement": "Residual enzyme activity (%)", "setting": "CC acylase N-176 [2]; [8]", "value": 4.6, "unit": "%"}]}
{"molecule": "CC(=O)OCC1=C(C(=O)O)N2C(=O)[C@@H](NC(=O)CCCCC(=O)O)[C@H]2SC1", "note": "[Adipyl 7ACA, 7(5-carboxypentanamido)-3-acetoxymethyl-3-cephem-4-carboxyli acid]", "values": [{"measurement": "Relative enzyme activity", "setting": "CC acylase N-176 [1]", "value": 19, "unit": "%"}]}
{"molecule": "CC(=O)OCC1=C(C(=O)O)N2C(=O)[C@@H](NC(=O)CCCC(=O)O)[C@H]2SC1", "note": "[Glutaryl 7ACA, 7(4-carboxybutanamdio)-3-acetoxymethyl-3-cephem-4-carboxylic acid]", "values": [{"measurement": "Relative enzyme activity", "setting": "CC acylase N-176 [1]", "value": 100, "unit": "%"}, {"measurement": "Maximum specific enzyme activity (Vmax)", "setting": "CC acylase N-176 [3]", "value": 100, "unit": "units/mg"}, {"measurement": "Km", "setting": "CC acylase N-176 [3]", "value": 2.6, "unit": "mM"}]}
{"molecule": "CC(=O)OCC1=C(C(=O)O)N2C(=O)[C@@H](NC(=O)CCC(=O)O)[C@H]2SC1", "note": "[Succinyl 7ACA, 7(3-carboxypropionamido)-3-acetoxymethyl-3-cephem-4-carboxylic acid]", "values": [{"measurement": "Relative enzyme activity", "setting": "CC acylase N-176 [1]", "value": 32, "unit": "%"}]}
{"molecule": "O=C(O)CCCC(=O)O", "note": "[glutaric acid]", "values": [{"measurement": "mode of inhibition", "setting": "CC acylase N-176 [4]", "value": "competitive"}, {"measurement": "Ki", "setting": "CC acylase N-176 [4]", "value": 2500, "unit": "µM"}]}
{"molecule": "CC(=O)N[C@H](CCCC(=O)N[C@@H]1C(=O)N2C(C(=O)O)=C(COC(C)=O)CS[C@H]12)C(=O)O", "note": "[N-Acetylcephalosporin C]", "values": [{"measurement": "Relative enzyme activity", "setting": "CC acylase N-176 [1]", "value": 0.1, "unit": "%"}]}
{"molecule": "O=C(O)CN(CCN(CC(=O)O)CC(=O)O)CC(=O)O", "note": "[EDTA, ethylenediaminetetraacetic acid]", "values": [{"measurement": "Residual enzyme activity (%)", "setting": "CC acylase N-176 [2]", "value": "91% and 73%"}]}
{"molecule": "CC(=O)OCC1=C(C(=O)O)N2C(=O)[C@@H](NC(=O)CCC[C@@H](N)C(=O)O)[C@H]2SC1", "note": "[Cephalosporin C]", "values": [{"measurement": "Relative enzyme activity", "setting": "CC acylase N-176 [1]", "value": 4, "unit": "%"}, {"measurement": "Maximum specific enzyme activity (Vmax)", "setting": "CC acylase N-176 [3]", "value": 3.1, "unit": "units/mg"}, {"measurement": "Km", "setting": "CC acylase N-176 [3]", "value": 4.8, "unit": "mM"}]}
{"molecule": "CC(=O)OCC1=C(C(=O)O)N2C(=O)[C@@H](N)[C@H]2SC1", "note": "[7-ACA, 7-aminocephalosporanic acid]", "values": [{"measurement": "mode of inhibition", "setting": "CC acylase N-176 [4]", "value": "competitive"}, {"measurement": "Ki", "setting": "CC acylase N-176 [4]", "value": 1400, "unit": "µM"}]}
{"molecule": "CC(=O)OCC1=C(C(=O)O)N2C(=O)[C@@H](NC(=O)Cc3cccs3)[C@H]2SC1", "note": "[Cephalothin]", "values": [{"measurement": "Relative enzyme activity", "setting": "CC acylase N-176 [1]", "value": 0.08, "unit": "%"}]}
{"molecule": "CC acylase N-176: new cephalosporin C acylase derived from Pseudomonas diminuta N-176, composed of α and β subunits (protein) MTMAANTDRAVLQAALPPLSGSLPIPGLSASVRVRRDAWGIPHIKASGEADAYRALGFVHSQDRLFQMELTRRKALGRAAEWLGAEAAEADILVRRLGMEKVCRRDFEALGVEAKDMLRAYVAGVNAFLASGAPLPVEYGLLGAEPEPWEPWHSIAVMRRLGLLMGSVWFKLWRMLALPVVGAANALKLRYDDGGRDLLCIPPGAEADRLEADLATLRPAVDALLKAMGGDASDAAGGGSNNWAVAPGRTATGRPILAGDPHRVFEIPGMYAQHHLACDRFDMIGLTVPGVPGFPHFAHNGKVAYCVTHAFMDIHDLYLEQFAGEGRTARFGNDFEPVAWSRDRIAVRGGADREFDIVETRHGPVIAGDPRDGAALTLRSVQFAETDLSFDCLTRMPGASTVAQLYDATRGWGLIDHNLVAGDVAGSIGHLVRARVPSRPRENGWLPVPGWSGEHEWRGWIPHEAMPRVIDPPGGIIVTANNRVVADDHPDYLCTDCHPPYRAERIMKRLVANPAFAVDDAAAIHADTLSPHVGLLRRRLEALGARDDSAAEGLRQMLVAWDGRMDAASEVASAYNAFRRALTRLVTDRSGLEQAISHPFAAVAPGVSPQGQVWWAVPTLLRDDDAGMLKGWSWDQALSEALSVASQNLTGRSWGEEHRPRFTHPLATQFPAWAGLLNPASRPIGGDGDTVLANGLVPSAGPQATYGALSRYVFDVGNWDNSRWVVFHGASGHPASAHYADQNAPWSDCAMVPMLYSWDRIAAEAVTSQELVPA", "values": [{"measurement": "pI value", "setting": "[5]", "value": "~4.5"}, {"measurement": "Optimum pH", "setting": "Optimum pH of the enzyme", "value": 9}, {"measurement": "optimum temperature", "setting": "[6]", "value": 50, "unit": "°C"}]}
